Experimental data reported in patent US20190239509A1, “METHOD OF CONTROLLING PLANTS” (SYNGENTA PARTICIPATIONS AG, priority 2016, published 2019).

What was measured:
Type in all cases: in vivo
Bidens pilosa (BIDPI) [1] = assay: B2 drilled field trial Brazil, post-emergence, BIDPI; conditions: 100=total damage, 0=no damage; for BIDPI 7DAA Observed: 7 days after application; for BIDPI 30 DAA Observed: 30 days after application
Method: (§1) Seeds of a variety of test species were used in drilled field trials to look at the control of important weed species present in corn crops as well as the effect on soybean (a volunteer crop in corn). Trials were carried out in Brazil in the summer season.
(§2) Plot size was 10-12 m^2, and two replicates were carried out per treatment. Plants were treated post-emergence at the 4 leaf stage. Fungicides and insecticides were used as necessary for plant health. The test was evaluated at 7 and 30 days after application (Amaranthus viridis (AMAVI), Bidens pilosa (BIDPI), Euphorbia heterophylla (EPPHL)) and 9 and 37 days after application (Brachiaria plantaginea (BRAPL) and soybean (Glycine max GLXMA) with 100=total damage to plant and 0=no damage to plant.
(§3) Expected results were calculated using the Colby Formula.

[2] = test system: Brachiaria plantaginea (BRAPL); assay: B3 drilled field trial Brazil, post-emergence, BRAPL; conditions: Summer season, 28 days after application
Method: (§4) Seeds of a variety of test species were used in drilled field trials to look at the control of important weed species present in corn crops as well as the effect on soybean (a volunteer crop in corn). Trials were carried out in Brazil in the summer season and the second season.
(§5) Plot size was 10-15 m^2, and two replicates were carried out per treatment. Plants were treated post-emergence between the 2 and 4 leaf stage. Species tested were Amaranthus retroflexus (AMARE), Ipomoea grandifolia (IAQGR), Digitaria horizontalis (DIGHO), Bidens pilosa (BIDPI), Eleusine indica (ELEIN), Brachiaria decumbens (BRADC), Centrus echinatus (CCHEC), Euphorbia heterophylla (EPPHL), Brachiaria plantaginea (BRAPL) and Glycine max (GLXMA; soybean). Fungicides and insecticides were used as necessary for plant health. The test was evaluated at 28 days after application with 100=total damage to plant and 0=no damage to plant.
as §3

[3] = test system: Brachiaria decumbens (BRADC); assay: B3 drilled field trial Brazil, post-emergence, BRADC; conditions: 28 days after application
Method: as §4, §5, §3

[4] = test system: Brachiaria plantaginea (BRAPL); assay: B2 drilled field trial Brazil, post-emergence, BRAPL; conditions: 100=total damage, 0=no damage; for BRAPL 9DAA Observed: 9 days after application; for BRAPL 37 DAA Observed: 37 days after application
Method: as §1, §2, §3

[5] = test system: Digitaria horizontalis (DIGHO); assay: B3 drilled field trial Brazil, post-emergence, DIGHO; conditions: 28 days after application
Method: as §4, §5, §3

[6] = test system: soybean (Glycine max GLXMA); assay: B2 drilled field trial Brazil, post-emergence, soybean; conditions: 100=total damage, 0=no damage; for GLXMA 9DAA Observed: 9 days after application; for GLXMA 37 DAA Observed: 37 days after application
Method: as §1, §2, §3

[7] = test system: Euphorbia heterophylla (EPPHL); assay: B3 drilled field trial Brazil, post-emergence, EPPHL; conditions: Summer season, 28 days after application
Method: as §4, §5, §3

[8] = test system: Amaranthus retroflexus (AMARE); assay: B3 drilled field trial Brazil, post-emergence, AMARE; conditions: 28 days after application, 100=total damage, 0=no damage
Method: as §4, §5, §3

Eleusine indica (ELEIN) = assay: B3 drilled field trial Brazil, post-emergence, ELEIN; conditions: 28 days after application
Method: as §4, §5, §3

[9] = test system: Amaranthus viridis (AMAVI); assay: B2 drilled field trial Brazil, post-emergence, AMAVI; conditions: 100=total damage, 0=no damage; for AMAVI 7DAA Observed: 7 days after application; for AMAVI 30 DAA Observed: 30 days after application
Method: as §1, §2, §3

[10] = test system: Ipomoea grandifolia (IAQGR); assay: B3 drilled field trial Brazil, post-emergence, IAQGR; conditions: 28 days after application
Method: as §4, §5, §3

Bidens pilosa (BIDPI) [11] = assay: B3 drilled field trial Brazil, post-emergence, BIDPI; conditions: 28 days after application
Method: as §4, §5, §3

[12] = test system: Centrus echinatus (CCHEC); assay: B3 drilled field trial Brazil, post-emergence, CCHEC; conditions: 28 days after application
Method: as §4, §5, §3

[13] = test system: Euphorbia heterophylla (EPPHL); assay: B2 drilled field trial Brazil, post-emergence, EPPHL; conditions: 100=total damage, 0=no damage; for EPPHL 7DAA Observed: 7 days after application; for EPPHL 30 DAA Observed: 30 days after application
Method: as §1, §2, §3

[14] = test system: Glycine max (GLXMA; soybean); assay: B3 drilled field trial Brazil, post-emergence, soybean; conditions: 28 days after application
Method: as §4, §5, §3

CS(=O)(=O)c1ccc(C(=O)C2C(=O)CCCC2=O)c([N+](=O)[O-])c1 [Mesotrione, reference compound]
BIDPI 7DAA Observed (Bidens pilosa (BIDPI) [1]; 75 g ai/ha): 28 | BIDPI 30 DAA Observed (Bidens pilosa (BIDPI) [1]; 75 g ai/ha): 28 | BIDPI 7DAA Observed (Bidens pilosa (BIDPI) [1]; 125 g ai/ha): 40 | BIDPI 30 DAA Observed (Bidens pilosa (BIDPI) [1]; 125 g ai/ha): 40 | Observed damage (100=total damage to plant, 0=no damage) ([2]; 75 g ai/ha): 15 | Observed damage (100=total damage to plant, 0=no damage) ([2]; 125 g ai/ha): 28 | Observed damage (100=total damage to plant, 0=no damage) ([3]; Second season, 75 g ai/ha): 10 | Observed damage (100=total damage to plant, 0=no damage) ([3]; Second season, 125 g ai/ha): 13 | Observed damage (100=total damage to plant, 0=no damage) ([3]; Summer season, 75 g ai/ha): 48 | Observed damage (100=total damage to plant, 0=no damage) ([3]; Summer season, 125 g ai/ha): 50 | BRAPL 9DAA Observed ([4]; 75 g ai/ha): 53 | BRAPL 37 DAA Observed ([4]; 75 g ai/ha): 7 | BRAPL 9DAA Observed ([4]; 125 g ai/ha): 65 | BRAPL 37 DAA Observed ([4]; 125 g ai/ha): 0 | Observed damage (100=total damage to plant, 0=no damage) ([5]; Second season, 75 g ai/ha): 40 | Observed damage (100=total damage to plant, 0=no damage) ([5]; Second season, 125 g ai/ha): 70 | Observed damage (100=total damage to plant, 0=no damage) ([5]; Summer season, 75 g ai/ha): 50 | Observed damage (100=total damage to plant, 0=no damage) ([5]; Summer season, 125 g ai/ha): 72 | GLXMA 9DAA Observed ([6]; 75 g ai/ha): 45 | GLXMA 37 DAA Observed ([6]; 75 g ai/ha): 65 | GLXMA 9DAA Observed ([6]; 125 g ai/ha): 55 | GLXMA 37 DAA Observed ([6]; 125 g ai/ha): 88 | Observed damage (100=total damage to plant, 0=no damage) ([7]; 75 g ai/ha): 40 | Observed damage (100=total damage to plant, 0=no damage) ([7]; 125 g ai/ha): 58 | AMARE Second season Observed ([8]; 75 g ai/ha): 40 | AMARE Summer season Observed ([8]; 75 g ai/ha): 73 | AMARE Second season Observed ([8]; 125 g ai/ha): 54 | AMARE Summer season Observed ([8]; 125 g ai/ha): 85 | Observed damage (100=total damage to plant, 0=no damage) (Eleusine indica (ELEIN); Second season, 75 g ai/ha): 20 | Observed damage (100=total damage to plant, 0=no damage) (Eleusine indica (ELEIN); Second season, 125 g ai/ha): 50 | Observed damage (100=total damage to plant, 0=no damage) (Eleusine indica (ELEIN); Summer season, 75 g ai/ha): 53 | Observed damage (100=total damage to plant, 0=no damage) (Eleusine indica (ELEIN); Summer season, 125 g ai/ha): 58 | AMAVI 7DAA Observed ([9]; 75 g ai/ha): 25 | AMAVI 30 DAA Observed ([9]; 75 g ai/ha): 30 | AMAVI 7DAA Observed ([9]; 125 g ai/ha): 65 | AMAVI 30 DAA Observed ([9]; 125 g ai/ha): 50 | Observed damage (100=total damage to plant, 0=no damage) ([10]; Second season, 75 g ai/ha): 79 | Observed damage (100=total damage to plant, 0=no damage) ([10]; Second season, 125 g ai/ha): 87 | Observed damage (100=total damage to plant, 0=no damage) ([10]; Summer season, 75 g ai/ha): 63 | Observed damage (100=total damage to plant, 0=no damage) ([10]; Summer season, 125 g ai/ha): 96 | Observed damage (100=total damage to plant, 0=no damage) (Bidens pilosa (BIDPI) [11]; Second season, 75 g ai/ha): 68 | Observed damage (100=total damage to plant, 0=no damage) (Bidens pilosa (BIDPI) [11]; Second season, 125 g ai/ha): 70 | Observed damage (100=total damage to plant, 0=no damage) (Bidens pilosa (BIDPI) [11]; Summer season, 75 g ai/ha): 53 | Observed damage (100=total damage to plant, 0=no damage) (Bidens pilosa (BIDPI) [11]; Summer season, 125 g ai/ha): 74 | Observed damage (100=total damage to plant, 0=no damage) ([12]; Second season, 75 g ai/ha): 0 | Observed damage (100=total damage to plant, 0=no damage) ([12]; Second season, 125 g ai/ha): 0 | Observed damage (100=total damage to plant, 0=no damage) ([12]; Summer season, 75 g ai/ha): 0 | Observed damage (100=total damage to plant, 0=no damage) ([12]; Summer season, 125 g ai/ha): 0 | EPPHL 7DAA Observed ([13]; 75 g ai/ha): 30 | EPPHL 30 DAA Observed ([13]; 75 g ai/ha): 20 | EPPHL 7DAA Observed ([13]; 125 g ai/ha): 40 | EPPHL 30 DAA Observed ([13]; 125 g ai/ha): 35 | Observed damage (100=total damage to plant, 0=no damage) ([14]; Second season, 75 g ai/ha): 83 | Observed damage (100=total damage to plant, 0=no damage) ([14]; Second season, 125 g ai/ha): 89 | Observed damage (100=total damage to plant, 0=no damage) ([14]; Summer season, 75 g ai/ha): 69 | Observed damage (100=total damage to plant, 0=no damage) ([14]; Summer season, 125 g ai/ha): 92
